This passage reports IC50 results from patent publication US20060264460A1 (Wyeth, priority 2005, published 2006).

pIC50: −log10 of the molar value.

The target in the assay is T1, human Cot/Tpl2 kinase (Homo sapiens, UniProt P41279).
T1 construct: human Cot/Tpl2 kinase construct encoding residues 30-398; 6His (N); made in house; host or cells: Sf9 insect cells, baculovirus system (BD Biosciences)
T1 sequence (P41279 30-398): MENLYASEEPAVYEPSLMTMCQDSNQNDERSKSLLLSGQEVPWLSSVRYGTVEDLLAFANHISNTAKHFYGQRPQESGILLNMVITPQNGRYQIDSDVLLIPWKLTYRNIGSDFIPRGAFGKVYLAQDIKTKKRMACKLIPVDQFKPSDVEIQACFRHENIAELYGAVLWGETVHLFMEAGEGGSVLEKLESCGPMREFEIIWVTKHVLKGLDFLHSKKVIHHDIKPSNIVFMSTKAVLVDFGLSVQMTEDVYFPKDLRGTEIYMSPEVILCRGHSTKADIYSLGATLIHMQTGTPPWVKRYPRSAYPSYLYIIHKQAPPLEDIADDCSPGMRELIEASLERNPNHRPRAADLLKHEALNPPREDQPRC
As to the kind of experiment: Tpl2/Cot kinase assay: GST-MEK1 phosphorylation detected by ELISA (DELFIA Eu). As to conditions: 0.4 nM Tpl2, 35 nM GST-MEK1, 50 uM ATP, 1 h at 30° C. Type of assay: biochemical. The procedure: Sf9 cells expressing the kinase were lysed in 50 mM NaPhosphate pH=8; 300 mM NaCl; 5 mM imidazole; 0.1 mM EGTA; 25 mM beta-glycerophosphate; 1% TX-100, 1% glycerol; 6 mM beta-mercaptoethanol and protease inhibitors. The lysate was clarified by centrifugation and was loaded onto a Ni-Sepharose column. The column was washed with 50 mM NaPhosphate pH=8; 300 mM NaCl; 15 mM imidazole; 1% glycerol; and 6 mM beta-mercaptoethanol. His-Tpl2 was eluted with 50 mM NaPhosphate pH=8; 300 mM NaCl; 250 mM imidazole; 1% glycerol; and 6 mM beta-mercaptoethanol. The eluted protein was further purified by size exclusion chromatography. Fractions corresponding to monomeric Tpl2 were then used in the assay.
Tpl2/Cot activity was directly assayed using GST-MEK1 as a substrate. GST-MEK1 phosphorylation on serine residues 217 and 221 was detected by ELISA. 0.4 nM Tpl2 was incubated with 35 nM GST-MEK1 in a kinase reaction buffer containing 20 mM MOPS pH=7.2; 50 uM ATP; 20 mM MgCl2; 1 mM DTT; 25 mM β-glycerophosphate; 5 mM EGTA; and 1 mM sodium orthovanadate for 1 h at 30° C. The compounds of the inventions solubilized in 100% DMSO were pre-diluted in assay buffer so that the final concentration of DMSO in the reaction was 1%. The kinase reaction was carried out in 100 ul volume on 96 well plates. The kinase reaction was then stopped with the addition of 100 mM EDTA. […] After a 1 hour incubation at room temperature, the detection plate was washed 4 times with TBST (TBS+0.05% Tween 20) and then incubated for another hour at room temperature with anti phospho-MEK1 antibody (Cell Signaling) 1:1000 in 10 mM MOPS 7.5; 150 mM NaCl; 0.05% Tween 20; 0.1% Gelatin; 0.02% NaN3; and 1% BSA. The detection plate was washed again and incubated for 30 min with DELFIA Europium (Eu) labeled goat anti-rabbit IgG (Perkin-Elmer), 1:4000 in the same buffer used for the primary incubation. After a final wash, Eu detection solution was added to each well and the Eu signal was measured in a Wallac Victor^2 Multilabel Counter. IC50 calculations were performed using the XLfit software package (IDBS, Guildford, UK).
(An ELISA detects its analyte on a solid surface through an enzyme-linked reagent.)
For the compound `N#Cc1cnc2ccc(NCc3ccc[n+]([O-])c3)cc2c1Nc1ccc(F)c(Cl)c1` [Example 30, 4-(3-Chloro-4-fluoro-phenylamino)-6-[(1-oxy-pyridin-3-ylmethyl)-amino]-quinoline-3-carbonitrile], the pIC50 was 6.89. The result for `Cc1cc(CNc2ccc3ncc(C#N)c(Nc4ccc(F)c(Cl)c4)c3c2)n[nH]1` [Example 31, 4-(3-Chloro-4-fluoro-phenylamino)-6-[(5-methyl-1 H-pyrazol-3-ylmethyl)-amino]-quinoline-3-carbonitrile] reads 6.96. The compound `COc1cc(NCc2cccnc2)cc2c(Nc3ccc(C)c(O)c3)c(C#N)cnc12` [Example 32, 4-(3-Hydroxy-4-methyl-phenylamino)-8-methoxy-6-[(pyridin-3-ylmethyl)-amino]-quinoline-3-carbonitrile] had a pIC50 of less than 4.40.

The compound `Cc1cc(CNc2ccc3ncc(C#N)c(Nc4ccc(F)c(Cl)c4)c3c2)n(C)n1` [Example 33, 4-(3-Chloro-4-fluoro-phenylamino)-6-[(2,5-dimethyl-2H-pyrazol-3-ylmethyl)-amino]-quinoline-3-carbonitrile] had a pIC50 of 6.70.

`N#Cc1cc(CNc2ccc3ncc(C#N)c(Nc4ccc(F)c(Cl)c4)c3c2)ccc1OCC(=O)O` [Example 34, (4-{[4-(3-Chloro-4-fluoro-phenylamino)-3-cyano-quinolin-6-ylamino]-methyl}-2-cyano-phenoxy)-acetic acid]: the negative-log IC50 (pIC50) is 6.59. Compound `N#Cc1cnc2ccc(NCc3c[nH]nc3-c3cccs3)cc2c1Nc1ccc(F)c(Cl)c1` [Example 35, 4-(3-Chloro-4-fluoro-phenylamino)-6-[(3-thiophen-2-yl-1H-pyrazol-4-ylmethyl)-amino]-quinoline-3-carbonitrile] gave a pIC50 of 5.74. To `N#Cc1cnc2ccc(NCc3ccccc3)cc2c1Nc1ccc(F)c(Cl)c1` [Example 36, 6-Benzylamino-4-(3-chloro-4-fluoro-phenylamino)-quinoline-3-carbonitrile] belongs 6.20; to `N#Cc1cnc2ccc(NCc3cccnc3)cc2c1Nc1ccc(F)c(Cl)c1` [Example 37, 4-(3-Chloro-4-fluoro-phenylamino)-6-[(pyridin-3-ylmethyl)-amino]-quinoline-3-carbonitrile], 6.39.

`Cc1nn(C)c(N2CCOCC2)c1CNc1ccc2ncc(C#N)c(Nc3ccc(F)c(Cl)c3)c2c1` [Example 38, 4-(3-Chloro-4-fluoro-phenylamino)-6-[(1,3-dimethyl-5-morpholin-4-yl-1H-pyrazol-4-ylmethyl)-amino]-quinoline-3-carbonitrile] had a pIC50 of 5.59.

As for `N#Cc1cnc2ccc(NCc3cccc[n+]3[O-])cc2c1Nc1ccc(F)c(Cl)c1` [Example 39, 4-(3-Chloro-4-fluoro-phenylamino)-6-[(1-oxy-pyridin-2-ylmethyl)-amino]-quinoline-3-carbonitrile], the pIC50 is 7.96. The result for `CC(C)(C)OC(=O)N1CCC[C@H]1CNc1ccc2ncc(C#N)c(Nc3ccc(F)c(Cl)c3)c2c1` [Example 40, 2-{[4-(3-Chloro-4-fluoro-phenylamino)-3-cyano-quinolin-6-ylamino]-methyl}-L-pyrrolidine-1-carboxylic acid tert-butyl ester] reads 5.62; that for `CC(C)(C)OC(=O)COc1ccc(Br)cc1CNc1ccc2ncc(C#N)c(Nc3ccc(F)c(Cl)c3)c2c1` [Example 42], 4.57. Take `N#Cc1cnc2ccc(NC[C@@H]3CCCN3)cc2c1Nc1ccc(F)c(Cl)c1` [Example 43, 4-(3-Chloro-4-fluoro-phenylamino)-6-[(L-pyrrolidin-2-ylmethyl)-amino]-quinoline-3-carbonitrile]: the pIC50 was 4.82. Compound `N#Cc1ccc(OCC(=O)O)c(CNc2ccc3ncc(C#N)c(Nc4ccc(F)c(Cl)c4)c3c2)c1` [Example 44, (2-{[4-(3-Chloro-4-fluoro-phenylamino)-3-cyano-quinolin-6-ylamino]-methyl}-4-cyano-phenoxy)-acetic acid] showed a pIC50 of 5.48. As for `CC(C)(C)OC(=O)COc1ccc(C#N)cc1CNc1ccc2ncc(C#N)c(Nc3ccc(F)c(Cl)c3)c2c1` [Example 45, (2-{[4-(3-Chloro-4-fluoro-phenylamino)-3-cyano-quinolin-6-ylamino]-methyl)-4-cyano-phenoxy)-acetic acid tert-butyl ester], the pIC50 was 4.83. With `N#Cc1cnc2ccc(NC[C@H]3CCCN3)cc2c1Nc1ccc(F)c(Cl)c1` [Example 46, 4-(3-Chloro-4-fluoro-phenylamino)-6-[(D-pyrrolidin-2-ylmethyl)-amino]-quinoline-3-carbonitrile], the pIC50 is 4.52. To `COc1cc(NCc2cnc[nH]2)cc2c(Nc3ccc(F)c(Cl)c3)c(C#N)cnc12` [Example 47, 4-(3-Chloro-4-fluoro-phenylamino)-6-[(3H-imidazol-4-ylmethyl)-amino]-8-methoxy-quinoline-3-carbonitrile] belongs 7.89; to `COCCOc1ccc(Br)cc1CNc1ccc2ncc(C#N)c(Nc3ccc(F)c(Cl)c3)c2c1` [Example 48, 6-[5-Bromo-2-(2-methoxy-ethoxy)-benzylamino]-4-(3-chloro-4-fluoro-phenylamino)-quinoline-3-carbonitrile], 5.82; to `N#Cc1cnc2ccc(NCc3c[nH]c4c(F)c(F)c(F)c(F)c34)cc2c1Nc1ccc(F)c(Cl)c1` [Example 49, 4-(3-Chloro-4-fluoro-phenylamino)-6-[(4,5,6,7-tetrafluoro-1H-indol-3-ylmethyl)-amino]-quinoline-3-carbonitrile], less than 4.40. To `CS(=O)(=O)c1ccc(CNc2ccc3ncc(C#N)c(Nc4ccc(F)c(Cl)c4)c3c2)cc1` [Example 50, 4-(3-Chloro-4-fluoro-phenylamino)-6-(4-methanesulfonyl-benzylamino)-quinoline-3-carbonitrile] belongs 6.70. Consider `COc1ncccc1CNc1ccc2ncc(C#N)c(Nc3ccc(F)c(Cl)c3)c2c1` [Example 51, 4-(3-Chloro-4-fluoro-phenylamino)-6-[(2-methoxy-pyridin-3-ylmethyl)-amino]-quinoline-3-carbonitrile], for which the negative-log IC50 (pIC50) was 6.96. `CC(C)(C)OC(=O)N1CCC(CNc2ccc3ncc(C#N)c(Nc4ccc(F)c(Cl)c4)c3c2)C1` (stereo not drawn) [Example 52, 3-{[4-(3-Chloro-4-fluoro-phenylamino)-3-cyano-quinolin-6-ylamino]-methyl}-pyrrolidine-1-carboxylic acid tert-butyl ester]: the pIC50 is 5.82. To `N#Cc1cnc2ccc(NCc3cccc(O)c3)cc2c1Nc1ccc(F)c(Cl)c1` [Example 53, 4-(3-Chloro-4-fluoro-phenylamino)-6-(3-hydroxy-benzylamino)-quinoline-3-carbonitrile] belongs 6.27; to `N#Cc1cnc2ccc(NCc3ccccc3O)cc2c1Nc1ccc(F)c(Cl)c1` [Example 55, 4-(3-Chloro-4-fluoro-phenylamino)-6-(2-hydroxy-benzylamino)-quinoline-3-carbonitrile], 5.74. With `CN(C)c1ccc(CNc2ccc3ncc(C#N)c(Nc4ccc(F)c(Cl)c4)c3c2)c(Br)c1` [Example 56, 6-(2-Bromo-4-dimethylamino-benzylamino)-4-(3-chloro-4-fluoro-phenylamino)-quinoline-3-carbonitrile], the pIC50 is 5.47. On to `COCCOc1ccc(C#N)cc1CNc1ccc2ncc(C#N)c(Nc3ccc(F)c(Cl)c3)c2c1` [Example 57, 4-(3-Chloro-4-fluoro-phenylamino)-6-[5-cyano-2-(2-methoxy-ethoxy)-benzylamino]-quinoline-3-carbonitrile], for which the pIC50 was 6.19. `CCOCCOc1ccc(Br)c(CNc2ccc3ncc(C#N)c(Nc4ccc(F)c(Cl)c4)c3c2)c1` [Example 58, 6-[2-Bromo-5-(2-ethoxy-ethoxy)-benzylamino]-4-(3-chloro-4-fluoro-phenylamino)-quinoline-3-carbonitrile] gave a pIC50 of 5.96. Take `CCOCCOc1ccc2c(c1)CN(c1ccc3ncc(C#N)c(Nc4ccc(F)c(Cl)c4)c3c1)C2=N` [Example 60]: the pIC50 was less than 4.40.

Compound `N#Cc1cnc2ccc(NCC3CCOCC3)cc2c1Nc1ccc(F)c(Cl)c1` [Example 61, 4-(3-Chloro-4-fluoro-phenylamino)-6-[(tetrahydro-pyran-4-ylmethyl)-amino]-quinoline-3-carbonitrile] showed a pIC50 of 6.09. To `N#Cc1cnc2ccc(NCC3CCNC3)cc2c1Nc1ccc(F)c(Cl)c1` (stereo not drawn) [Example 62, 4-(3-Chloro-4-fluoro-phenylamino)-6-[(pyrrolidin-3-ylmethyl)-amino]-quinoline-3-carbonitrile] belongs less than 4.40.

The pIC50 is −log10 of the IC50, conventionally taken in molar units. Read a high pIC50 as a small IC50.
